{"source": "ChEMBL document CHEMBL1221236", "about": "“Discovery of a factor Xa inhibitor (3R,4R)-1-(2,2-difluoro-ethyl)-pyrrolidine-3,4-dicarboxylic acid 3-[(5-chloro-pyridin-2-yl)-amide] 4-[[2-fluoro-4-(2-oxo-2H-pyridin-1-yl)-phenyl]-amide] as a clinical candidate” (Bioorg Med Chem Lett, 2010)", "key": {"[1]": {"assay": "Lipophilicity, log D of the compound at pH 7.4", "format": "physicochemical", "conditions": "buffer; call rule not given here"}, "[2]": {"assay": "Half life in po dosed rat", "format": "ADME, organism-based", "conditions": "in vivo"}, "[3]": {"assay": "Oral bioavailability in rat", "format": "ADME, organism-based", "conditions": "in vivo"}, "[4]": {"tested_on": "Rattus norvegicus", "assay": "Dose normalized AUC in po dosed rat", "format": "ADME, organism-based", "conditions": "in vivo"}, "[5]": {"tested_on": "Cynomolgus monkey", "assay": "Dose normalized AUC in po dosed cynomolgus monkey", "format": "ADME, organism-based, Macaca fascicularis", "conditions": "in vivo"}, "[6]": {"assay": "Volume of distribution at steady state in cynomolgus monkey", "format": "ADME, organism-based, Macaca fascicularis", "conditions": "in vivo, read-out: Vdss"}, "[7]": {"assay": "Oral bioavailability in cynomolgus monkey", "format": "ADME, organism-based, Macaca fascicularis", "conditions": "in vivo"}, "[8]": {"tested_on": "Phospholipidosis", "assay": "In vitro phospholipidosis", "format": "ADME, cell-based", "conditions": "human, hepg2"}, "[9]": {"assay": "Clearance in rat", "format": "ADME, organism-based", "conditions": "in vivo"}, "[10]": {"assay": "Half life in cynomolgus monkey", "format": "ADME, organism-based, Macaca fascicularis", "conditions": "in vivo"}, "[11]": {"assay": "Clearance in cynomolgus monkey", "format": "ADME, organism-based, Macaca fascicularis", "conditions": "in vivo"}, "[12]": {"assay": "Dissociation constant, pKa of the compound", "format": "physicochemical"}, "[13]": {"assay": "Volume of distribution at steady state in rat", "format": "ADME, organism-based", "conditions": "in vivo, read-out: Vdss"}, "[14]": {"assay": "Permeability of the compound by PAMPA", "format": "ADME", "conditions": "read-out: permeability"}}, "data": [{"smiles": "CS(=O)(=O)N1C[C@H](C(=O)Nc2ccc(Cl)c(F)c2)[C@@H](C(=O)Nc2ccc(-n3ccccc3=O)cc2F)C1", "values": [{"measurement": "logD", "setting": "[1]", "result": 2.37}]}, {"smiles": "COc1ccc(NC(=O)[C@H]2CN(S(C)(=O)=O)C[C@@H]2C(=O)Nc2ccc(-n3ccccc3=O)cc2F)cc1F", "values": [{"measurement": "logD", "setting": "[1]", "result": 0.56}]}, {"smiles": "O=C(Nc1ccc(Cl)cn1)[C@H]1CNC[C@@H]1C(=O)Nc1ccc(-n2ccccc2=O)cc1F", "values": [{"measurement": "logD", "setting": "[1]", "result": 0.63}]}, {"smiles": "O=C(Nc1ccc(Cl)cc1)[C@H]1CN(CC(F)F)C[C@@H]1C(=O)Nc1ccc(-n2ccccc2=O)cc1F", "values": [{"measurement": "logD", "setting": "[1]", "result": 2.69}]}, {"smiles": "CCS(=O)(=O)N1C[C@H](C(=O)Nc2ccc(Cl)cn2)[C@@H](C(=O)Nc2ccc(-n3ccccc3=O)cc2F)C1", "values": [{"measurement": "half-life", "setting": "[2]", "result": 1.1, "unit": "h"}, {"measurement": "logD", "setting": "[1]", "result": 1.77}, {"measurement": "bioavailability", "setting": "[3]", "result": 24, "unit": "%"}, {"measurement": "AUC", "setting": "[4]", "result": 3300, "unit": "ng·h/mL"}, {"measurement": "AUC", "setting": "[5]", "result": 230, "unit": "ng·h/mL"}, {"measurement": "Vd", "setting": "[6]", "result": 0.46, "unit": "L/kg"}, {"measurement": "bioavailability", "setting": "[7]", "result": 9, "unit": "%"}, {"measurement": "Phospholipidosis", "setting": "[8]", "result": "Not Active"}, {"measurement": "clearance", "setting": "[9]", "result": 1.3, "unit": "mL/min/kg"}, {"measurement": "half-life", "setting": "[10]", "result": 1.9, "unit": "h"}, {"measurement": "clearance", "setting": "[11]", "result": 5.5, "unit": "mL/min/kg"}, {"measurement": "pKa", "setting": "[12]", "result": 2.99}, {"measurement": "Vd", "setting": "[13]", "result": 0.04, "unit": "L/kg"}]}, {"smiles": "O=C(Nc1ccc(Cl)cn1)[C@H]1CN(CC(F)F)C[C@@H]1C(=O)Nc1ccc(-n2ccccc2=O)cc1F", "values": [{"measurement": "half-life", "setting": "[2]", "result": 1.3, "unit": "h"}, {"measurement": "logD", "setting": "[1]", "result": 2.2}, {"measurement": "bioavailability", "setting": "[3]", "result": 100, "unit": "%"}, {"measurement": "AUC", "setting": "[4]", "result": 10000, "unit": "ng·h/mL"}, {"measurement": "AUC", "setting": "[5]", "result": 1700, "unit": "ng·h/mL"}, {"measurement": "Vd", "setting": "[6]", "result": 0.54, "unit": "L/kg"}, {"measurement": "bioavailability", "setting": "[7]", "result": 65, "unit": "%"}, {"measurement": "Phospholipidosis", "setting": "[8]", "result": "Not Active"}, {"measurement": "clearance", "setting": "[9]", "result": 2.1, "unit": "mL/min/kg"}, {"measurement": "half-life", "setting": "[10]", "result": 6.3, "unit": "h"}, {"measurement": "clearance", "setting": "[11]", "result": 6.4, "unit": "mL/min/kg"}, {"measurement": "pKa", "setting": "[12]", "result": 4.79}, {"measurement": "Vd", "setting": "[13]", "result": 0.18, "unit": "L/kg"}]}, {"smiles": "CS(=O)(=O)N1C[C@H](C(=O)Nc2ccc(Cl)cc2)[C@@H](C(=O)Nc2ccc(N3CCOCC3=O)cc2)C1", "values": [{"measurement": "Papp", "setting": "[14]", "result": 0.46, "unit": "×10⁻⁶ cm/s"}]}, {"smiles": "COc1ccc(NC(=O)[C@H]2CN(S(C)(=O)=O)C[C@@H]2C(=O)Nc2ccc(-n3ccccc3=O)cc2F)cc1", "values": [{"measurement": "logD", "setting": "[1]", "result": 1.19}]}, {"smiles": "CN(C)S(=O)(=O)N1C[C@H](C(=O)Nc2ccc(Cl)cc2)[C@@H](C(=O)Nc2ccc(-n3ccccc3=O)cc2F)C1", "values": [{"measurement": "logD", "setting": "[1]", "result": 2.62}]}, {"smiles": "COC(=O)N1C[C@H](C(=O)Nc2ccc(Cl)cc2)[C@@H](C(=O)Nc2ccc(-n3ccccc3=O)cc2F)C1", "values": [{"measurement": "logD", "setting": "[1]", "result": 2.43}]}, {"smiles": "O=C(Nc1ccc(Cl)cn1)[C@H]1CN(CC(F)(F)F)C[C@@H]1C(=O)Nc1ccc(-n2ccccc2=O)cc1F", "values": [{"measurement": "logD", "setting": "[1]", "result": 2.62}]}, {"smiles": "CC(C)N1C[C@H](C(=O)Nc2ccc(Cl)cn2)[C@@H](C(=O)Nc2ccc(-n3ccccc3=O)cc2F)C1", "values": [{"measurement": "half-life", "setting": "[2]", "result": 2.9, "unit": "h"}, {"measurement": "logD", "setting": "[1]", "result": 1.86}, {"measurement": "bioavailability", "setting": "[3]", "result": 39, "unit": "%"}, {"measurement": "AUC", "setting": "[4]", "result": 900, "unit": "ng·h/mL"}, {"measurement": "AUC", "setting": "[5]", "result": 820, "unit": "ng·h/mL"}, {"measurement": "Vd", "setting": "[6]", "result": 1.6, "unit": "L/kg"}, {"measurement": "bioavailability", "setting": "[7]", "result": 80, "unit": "%"}, {"measurement": "Phospholipidosis", "setting": "[8]", "result": "Active"}, {"measurement": "clearance", "setting": "[9]", "result": 4.2, "unit": "mL/min/kg"}, {"measurement": "half-life", "setting": "[10]", "result": 4.7, "unit": "h"}, {"measurement": "clearance", "setting": "[11]", "result": 17, "unit": "mL/min/kg"}, {"measurement": "pKa", "setting": "[12]", "result": 7.55}, {"measurement": "Vd", "setting": "[13]", "result": 0.47, "unit": "L/kg"}]}, {"smiles": "CCOC(=O)N1C[C@H](C(=O)Nc2ccc(Cl)cc2)[C@@H](C(=O)Nc2ccc(-n3ccccc3=O)cc2F)C1", "values": [{"measurement": "logD", "setting": "[1]", "result": 2.57}]}, {"smiles": "CCCS(=O)(=O)N1C[C@H](C(=O)Nc2ccc(Cl)cc2)[C@@H](C(=O)Nc2ccc(-n3ccccc3=O)cc2F)C1", "values": [{"measurement": "logD", "setting": "[1]", "result": 2.94}]}, {"smiles": "O=C(Nc1ccc(Cl)cc1)[C@H]1CN(C(=O)N2CCCC2)C[C@@H]1C(=O)Nc1ccc(-n2ccccc2=O)cc1F", "values": [{"measurement": "logD", "setting": "[1]", "result": 2.78}]}, {"smiles": "CS(=O)(=O)N1C[C@H](C(=O)Nc2ccc(OC(F)(F)F)cc2)[C@@H](C(=O)Nc2ccc(-n3ccccc3=O)cc2F)C1", "values": [{"measurement": "logD", "setting": "[1]", "result": 2.36}]}, {"smiles": "O=C(Nc1ccc(Cl)cc1)[C@H]1CN(CC(F)(F)F)C[C@@H]1C(=O)Nc1ccc(-n2ccccc2=O)cc1F", "values": [{"measurement": "logD", "setting": "[1]", "result": 3.2}]}, {"smiles": "CS(=O)(=O)N1C[C@H](C(=O)Nc2ccc(Cl)cc2)[C@@H](C(=O)Nc2ccc(-n3ccccc3=O)cc2F)C1", "values": [{"measurement": "logD", "setting": "[1]", "result": 2.17}]}, {"smiles": "NS(=O)(=O)N1C[C@H](C(=O)Nc2ccc(Cl)cc2)[C@@H](C(=O)Nc2ccc(-n3ccccc3=O)cc2F)C1", "values": [{"measurement": "logD", "setting": "[1]", "result": 1.83}]}, {"smiles": "CS(=O)(=O)N1C[C@H](C(=O)Nc2ccc(Cl)cn2)[C@@H](C(=O)Nc2ccc(-n3ccccc3=O)cc2F)C1", "values": [{"measurement": "logD", "setting": "[1]", "result": 1.46}]}, {"smiles": "CC(C)S(=O)(=O)N1C[C@H](C(=O)Nc2ccc(Cl)cc2)[C@@H](C(=O)Nc2ccc(-n3ccccc3=O)cc2F)C1", "values": [{"measurement": "logD", "setting": "[1]", "result": 2.81}]}, {"smiles": "O=C(Nc1ccc(Cl)cc1)[C@H]1CN(S(=O)(=O)CC(F)(F)F)C[C@@H]1C(=O)Nc1ccc(-n2ccccc2=O)cc1F", "values": [{"measurement": "logD", "setting": "[1]", "result": 2.68}]}, {"smiles": "COc1ccc(NC(=O)[C@H]2CN(S(C)(=O)=O)C[C@@H]2C(=O)Nc2ccc(-n3ccccc3=O)cc2F)cc1Cl", "values": [{"measurement": "logD", "setting": "[1]", "result": 1.9}]}, {"smiles": "COC(=O)N1C[C@H](C(=O)Nc2ccc(Cl)cn2)[C@@H](C(=O)Nc2ccc(-n3ccccc3=O)cc2F)C1", "values": [{"measurement": "half-life", "setting": "[2]", "result": 1.5, "unit": "h"}, {"measurement": "logD", "setting": "[1]", "result": 2.02}, {"measurement": "bioavailability", "setting": "[3]", "result": 100, "unit": "%"}, {"measurement": "AUC", "setting": "[4]", "result": 2300, "unit": "ng·h/mL"}, {"measurement": "AUC", "setting": "[5]", "result": 6700, "unit": "ng·h/mL"}, {"measurement": "Vd", "setting": "[6]", "result": 0.44, "unit": "L/kg"}, {"measurement": "bioavailability", "setting": "[7]", "result": 64, "unit": "%"}, {"measurement": "Phospholipidosis", "setting": "[8]", "result": "Not Active"}, {"measurement": "clearance", "setting": "[9]", "result": 7.3, "unit": "mL/min/kg"}, {"measurement": "half-life", "setting": "[10]", "result": 5, "unit": "h"}, {"measurement": "clearance", "setting": "[11]", "result": 1.8, "unit": "mL/min/kg"}, {"measurement": "pKa", "setting": "[12]", "result": 2.75}, {"measurement": "Vd", "setting": "[13]", "result": 0.42, "unit": "L/kg"}]}, {"smiles": "CS(=O)(=O)N1C[C@H](C(=O)Nc2ccc3[nH]ccc3c2)[C@@H](C(=O)Nc2ccc(-n3ccccc3=O)cc2F)C1", "values": [{"measurement": "logD", "setting": "[1]", "result": 1.07}]}, {"smiles": "O=C(Nc1ccc(Cl)cc1)[C@H]1CN(CCO)C[C@@H]1C(=O)Nc1ccc(-n2ccccc2=O)cc1F", "values": [{"measurement": "logD", "setting": "[1]", "result": 1.8}]}, {"smiles": "CS(=O)(=O)N1C[C@H](C(=O)Nc2ccc3[nH]ncc3c2)[C@@H](C(=O)Nc2ccc(-n3ccccc3=O)cc2F)C1", "values": [{"measurement": "logD", "setting": "[1]", "result": 0.5}]}, {"smiles": "CCS(=O)(=O)N1C[C@H](C(=O)Nc2ccc(Cl)cc2)[C@@H](C(=O)Nc2ccc(-n3ccccc3=O)cc2F)C1", "values": [{"measurement": "logD", "setting": "[1]", "result": 2.44}]}, {"smiles": "CC(=O)N1C[C@H](C(=O)Nc2ccc(Cl)cc2)[C@@H](C(=O)Nc2ccc(-n3ccccc3=O)cc2F)C1", "values": [{"measurement": "logD", "setting": "[1]", "result": 1.8}]}, {"smiles": "CCCOC(=O)N1C[C@H](C(=O)Nc2ccc(Cl)cc2)[C@@H](C(=O)Nc2ccc(-n3ccccc3=O)cc2F)C1", "values": [{"measurement": "logD", "setting": "[1]", "result": 3.06}]}]}
